The test system of one data set is AML cells. Put plainly: CD123 expression in AML cells quantitated by fluorescence-activated cell sorting. The data set is classed as cell-based.
The next data set deals with Kasumi-1. Put plainly: CD123 MFI by flow cytometry, Kasumi-1. In kind it is cell-based. The following applies: 0.46-3000 nM, day 7. As to the method: (§1) (c) Fold change in CD123 MFI at 1000 nM clinically relevant decitabine dose (P values are calculated by student Test). Cells are gated on live cells. Blast cells in AML cell lines were defined as CD33 or CD34 positive. Primary HSCs were defined as CD45^dimSSC^lowCD34^highCD38− and multipotent progenitors were defined as CD34^highCD38+, data represents mean of four normal donors and the error bars represent Standard deviation. Fold change in CD123 Mean Fluorescence Intensity (MFI) with respect to DMSO treated cells is presented.
(§2) SKM1, Kasumi-1 and MOLM-13 cell lines were maintained in 80% RPMI 1640+20% FBS according to manufacturer's instructions. […]
(§3) The following compounds were serially dosed in 24-hour intervals using an acoustic liquid handler. […] The dose range of the compounds was determined by back calculating the clinical dose and corresponding to a plasma concentration at 1.5 hours after standard dosing. […] Cells were stained at day 0, day 3 and day 7 following cell plating samples were stained with the antibody panel details below and readout with an lntellicyt iQue Plus flow cytometer.
(§4) Cells were stained using Notable labs no wash protocol number (P.SOP.009.01_Screen Readout Automated), briefly, antibodies are added to cells with an acoustic liquid handler, incubated at 4° C. for 20 minutes and readout with an Intellicyt iQue Plus flow cytometer. […]

Data set [1] concerns CD34+CD38+ Multipotent progenitors (MMPs) and CD34+CD38− Hematopoietic Stem Cells (HSCs). Nature of the data set: Live cell counts by flow cytometry, normal donor CD34+ bone marrow cells. The following applies: for cell counts (dose dependent decline): primary MMPs and HSCs, 0.46-3000 nM. As to the method:
(§5) Number of live cells was determined by excluding DAPI+ dead cells in each well. Average of triplicates is presented on the graph.
CD34 enriched bone marrow was purchase from AllCells. Fresh (never frozen) cells were plated at 15,000 cells per well in 384 well microtiter plates and treated with drugs in triplicate using an acoustic liquid handler. The following compounds were dosed serial in 24-hour intervals: decitabine, guadecitabine and 5-azacytidine were dosed at 3000, 1000, 333.33, 111.11, 37.04, 12.35, 4.12, 1.37 and 0.46 nM at 0, 24 and 48 hours. In addition, auadecitabine was dosed at 3000, 1000, 333.33, 111.11, 37.04, 12.35, 4.12, 1.37 and 0.46 nM at 0 hours without serial dosing (single dose). Cells were stained at day 0 and day 7 following cell plating samples were stained with the antibody panel details below and readout with an Intellicyt iQue Plus flow cytometer. Cells were stained using Notable labs staining protocol number (P.SOP.009.01_Screen Readout Automated). Staining Panel for Healthy CD34+ Bone Marrow: DAPI, CD45, CD3, CD19, CD16, CD14, CD38, CD33, CD34, CD90, CD123, CD274. Live cells were gated using FSC/SSC and DAPI exclusion using FlowJo analysis software (Beckman Flow), and then further defined by cell surface marker expression. Absolute counts from triplicate wells were averaged and normalized to a vehicle-only (DMSO) control.

Data set [2] relates to PD-L1 expression in AML cell lines and primary bone marrow HSCs/MMPs. Nature of the data set: PD-L1 expression by flow cytometry, AML cell lines and primary bone marrow cells. In kind it is cell-based. The following applies: any dose; all cell lines and primary bone marrow HSCs or MMPs.
Description: Cells are gated on live cells. Blast cells in AML cell lines were defined as CD33 or CD34 positive. Primary HSCs were defined as CD45^dimSSC^lowCD34^highCD38− and multipotent progenitors were defined as CD34^highCD38+, data represents mean of four normal donors and the error bars represent Standard deviation.
(§6) SKM1, Kasumi-1 and MOLM-13 cell lines were maintained in 80% RPMI 1640+20% FBS according to manufacturer's instructions. Logarithmically growing SKM1, Kasumi-1 and MOLM-13 cell lines were plated at 7,500 cells per well in 384 well microtiter plates and treated with drugs in triplicate using an acoustic liquid handler using protocol (P.SOP.007.02_Compound Addition Using GBG).
as §3, with “handler. Decitabine, 5-azacytidine and guadecitabine were dosed at 3000, 1000, 333.33, 111.11, 37.04, 12.35, 4.12, 1.37 and 0.46 nM at 0, 24 and 48 hours.” for “handler.”
Cells were stained using Notable labs no wash protocol number (P.SOP.009.01_Screen Readout Automated), briefly, antibodies are added to cells with an acoustic liquid handler, incubated at 4° C. for 20 minutes and readout with an Intellicyt iQue Plus flow cytometer. […] Absolute counts or Mean Fluorescence Intensity from triplicate wells were averaged and fold change was calculated with respect to a vehicle-only (DMSO) control.
CD34 enriched bone marrow was purchase from AllCells. […] Cells were stained at day 0 and day 7 following cell plating samples were stained with the antibody panel details below and readout with an Intellicyt iQue Plus flow cytometer. Cells were stained using Notable labs staining protocol number (P.SOP.009.01_Screen Readout Automated). […]

Data set [3] deals with primary CD34+ Bone marrow cells. Nature of the data set: CD123 MFI by flow cytometry, primary CD34+ bone marrow cells (overall). In kind it is cell-based. The following applies: for CD123 MFI / expression in primary bone marrow cells: four normal donors, dose range. As to the method:
as §1
(§7) CD34 enriched bone marrow was purchase from AllCells.

Data set [4] concerns AML cell lines Kasumi-1, SKM-1 and MOLM-13. Put plainly: Live cell counts by flow cytometry (DAPI exclusion), AML cell lines. In kind it is cell-based. The following applies: for cell numbers (dose dependent decline): day 3, 0.46-3000 nM dosed at 0, 24 and 48 hours. As to the method:
as §5, §6
(§8) The following compounds were serially dosed in 24-hour intervals using an acoustic liquid handler. Decitabine, 5-azacytidine and guadecitabine were dosed at 3000, 1000, 333.33, 111.11, 37.04, 12.35, 4.12, 1.37 and 0.46 nM at 0, 24 and 48 hours. In addition, guadecitabine was dosed at 3000, 1000, 333.33, 111.11, 37.04, 12.35, 4.12, 1.37 and 0.46 nM at 0 hours without serial dosing (single dose). The dose range of the compounds was determined by back calculating the clinical dose and corresponding to a plasma concentration at 1.5 hours after standard dosing. The 1000 nM concentration of decitabine is based on the clinical dose of 20 mg/m^2, 1-hour intravenous infusion, one time per day for five consecutive days every 4 weeks and the maximum plasma concentration after standard dosing (1.15 micromolar). Decitabine doses in the study were selected above and below this dose. The 1000 nM concentration of 5-azacytidine is based on the clinical dose of 75 mg/m^2/day for 7 days every 28 days and the plasma concentration at 1.5 hours after standard dosing. 5-Azacytidine doses in the study were selected above and below this dose. Guadecitabine regimen is 60 mg/m^2 given subcutaneously daily on Days 1-5 in 28-day cycles (delayed as needed to allow blood count recovery). The clinically relevant guadecitabine dose is 211 nM. Cells were stained at day 0, day 3 and day 7 following cell plating samples were stained with the antibody panel details below and readout with an lntellicyt iQue Plus flow cytometer.
(§9) Cells were stained using Notable labs no wash protocol number (P.SOP.009.01_Screen Readout Automated), briefly, antibodies are added to cells with an acoustic liquid handler, incubated at 4° C. for 20 minutes and readout with an Intellicyt iQue Plus flow cytometer. Staining Panel for Cell lines: DAPI, CD123, PDL1, CD34, CD33, CD15, CD38. Live cells were gated using FSC/SSC and DAPI exclusion using FlowJo analysis software (BeckmanFLow), and then further defined by cell surface marker expression. Absolute counts or Mean Fluorescence Intensity from triplicate wells were averaged and fold change was calculated with respect to a vehicle-only (DMSO) control.

A further data set relates to SKM1 cell line. Put plainly: CD123 MFI by flow cytometry, SKM1. The data set is classed as cell-based. The following applies: for CD123 MFI (dose dependent increase): SKM1, 0.46-3000 nM, day 7; for CD123 expression at clinically relevant dose (FIG. 2c): 1000 nM. The protocol: as §1, §6, §8, §9
The next data set concerns MOLM-13. Put plainly: CD123 MFI by flow cytometry, MOLM-13. The data set is classed as cell-based. The following applies: 0.46-3000 nM, day 7. The protocol: as §1, §2, §3, §4
For another data set, the system named is CD38+CD34+ MMPs. Nature of the data set: CD123 expression by flow cytometry, primary multipotent progenitors. The data set is classed as cell-based. The following applies: for average increase in CD123 expression vs DMSO / CD123 expression at clinically relevant dose (FIG. 2c): MMPs.
Description: (§10) […] Cells are gated on live cells. Blast cells in AML cell lines were defined as CD33 or CD34 positive. Primary HSCs were defined as CD45^dimSSC^lowCD34^highCD38− and multipotent progenitors were defined as CD34^highCD38+, data represents mean of four normal donors and the error bars represent Standard deviation. Fold change in CD123 Mean Fluorescence Intensity (MFI) with respect to DMSO treated cells is presented.
as §7

Another data set deals with AML blasts. The following applies: in vitro; reported; cited from earlier work.
For data set [5] the following is noted: clinical dose 20 mg/m^2, 1-hour intravenous infusion, once per day for five consecutive days every 4 weeks; cited from earlier work.
For data set [6], the system named is Hematopoietic stem cells (HSCs). Nature of the data set: CD123 expression by flow cytometry, primary hematopoietic stem cells. The data set is classed as cell-based. The following applies: for CD123 expression at clinically relevant dose (FIG. 2c): HSC; for increase in CD123 expression vs DMSO: HSCs.
Description: as §10, §7

The next data set concerns AML patients. As to the method: Fifteen AML patients treated in our ongoing first in human phase 1 clinical trial (NCT0262355) evaluating CD123CAR T cells in patients with relapsed or refractory AML or blastic plasmacytoid dendritic cell neoplasm (BPDCN) received lymphodepletion prior to CAR T cell infusion on day 0. All received fludarabine (25-30 mg/m2/day) and cyclophosphamide (300-500 mg/m2/day). Both were administered daily from days −5 to −3. Eight also received decitabine (20 mg/m2/day) given daily for 5 days from days −7 to −3 or daily for 3 days from days −5 to −3.

[7] abbreviates: 5 day treatment, decitabine p<0.001, azacitidine p<0.05.

SMILES strings stand for the structures.

For the compound `Nc1ncn([C@@H]2O[C@H](CO)[C@@H](O)[C@H]2O)c(=O)n1` [5-azacytidine], in the data set on AML cells (setting [7]), the “CD123 expression in AML cells” value is “significant increase”. Further, the “CD123 MFI (dose dependent increase)” value in the data set on Kasumi-1, with SKM1 cell line and in the data set with MOLM-13 was “did not impact” throughout. The “cell counts (dose dependent decline)” value in data set [1] was “dose dependent decline”. Moreover, the PD-L1 expression entry in [2] was “no impact”. Moreover, the “CD123 MFI / expression in primary bone marrow cells” value in data set [3] is listed as “highly variable”. In addition, in data set [4], the “cell numbers (dose dependent decline)” value is recorded as “dose dependent decline”.

As for `CN[C@@H]1C[C@H]2O[C@@](C)([C@@H]1OC)n1c3ccccc3c3c4c(c5c6ccccc6n2c5c31)C(=O)NC4` [Staurosporine], the viable cells entry in data set [1] (positive control for cell death, primary cell groups) was “significant reductions”; in data set [4] (positive control for cell death, all cell line groups), “significant reductions”.

Take `Nc1ncn([C@H]2C[C@H](O)[C@@H](CO)O2)c(=O)n1` [decitabine]: the “CD123 expression in AML cells” value with AML cells (3 day treatment, p<0.001) was “significant increase”; in the data set with AML cells (setting [7]), “significant increase”. Further, the “average increase in CD123 expression vs DMSO” value stood at 1.4 fold in the data set on CD38+CD34+ MMPs (111.11 nM), 1.4 fold with CD38+CD34+ MMPs (333.33 nM) and 1.3 fold with CD38+CD34+ MMPs (1000 nM). Further, the “CD123 expression at clinically relevant dose (FIG. 2c)” value (in the data set with CD38+CD34+ MMPs (1000 nM); in the data set on SKM1 cell line; in data set [6] (1000 nM)) was “significantly enhanced” each time. In the data set on AML blasts, the “CD123 expression in AML blasts” value is “upregulate”. Moreover, the “maximum plasma concentration after standard dosing” value in [5] is 1.15 µM. Also, the “cell death at high dose” value in [1] (3000 nM, FIG. 1b) is given as “cell death”. Also, the “cell counts (dose dependent decline)” value in data set [1] is given as “dose dependent decline”. The PD-L1 expression entry in data set [2] is “no impact”. In data set [3] (3000 nM, FIG. 2b), the “CD123 MFI with respect to DMSO treated cells” value was “no change”. In [3] (clinically relevant dose of 1000 nM), the “CD123 MFI in primary CD34+ bone marrow cells” value is on record as “increase”. For the same compound, the “CD123 MFI / expression in primary bone marrow cells” value in [3] was “upregulates”. Moreover, in [4], the “cell numbers (dose dependent decline)” value is “dose dependent decline”. In addition, the “CD123 MFI (dose dependent increase)” value is recorded as “upregulates” in the data set on SKM1 cell line and “dose dependent increase” with SKM1 cell line (listed as Decitabine). Moreover, the “increase in CD123 expression vs DMSO” value came to 1.3 fold in [6] (111.11 nM), 1.6 fold in data set [6] (333.33 nM) and 1.4 fold in data set [6] (1000 nM). For the same compound, the “treatment related adverse events in decitabine treated group” value in the data set with AML patients (8 patients with decitabine vs 7 without) is “not observed increased treatment related adverse events”. Further, in the data set with AML patients (AML patients, fludarabine and cyclophosphamide lymphodepletion, eight also decitabine 20 mg/m2/day, CAR T infusion day 0), the “tolerability / dose limiting toxicities” value was “well tolerated”.

For `Nc1ncn([C@H]2C[C@H](OP(=O)(O)OC[C@H]3O[C@@H](n4cnc5c(=O)[nH]c(N)nc54)C[C@@H]3O)[C@@H](CO)O2)c(=O)n1` [guadecitabine], the “CD123 expression at clinically relevant dose (FIG. 2c)” value (in the data set on CD38+CD34+ MMPs (1000 nM); with SKM1 cell line; in data set [6] (1000 nM)) was “significantly enhanced” in each case. Moreover, the “change in CD123 expression” value in the data set with CD38+CD34+ MMPs (normal bone marrow MMPs, regardless of the dose) was “did not show any change”; in data set [6] (normal bone marrow HSCs, regardless of the dose) it was “did not show any change”. Further, in data set [2], the PD-L1 expression entry was “no impact”. For the same compound, the “cell numbers (dose dependent decline)” value in data set [4] is “dose dependent decline”. For the same compound, the “CD123 MFI (dose dependent increase)” value in the data set on SKM1 cell line is “increase in CD123 MFI in a dose dependent manner”.

Source of the values: patent publication US20200222462A1, “METHODS OF TREATMENT USING DECITABINE AND A CD123-TARGETED THERAPY” (priority 2018, published 2020).
